Measurements as given in ChEMBL document CHEMBL4043204, “meso-Dihydroguaiaretic acid derivatives with antibacterial and antimycobacterial activity” (Bioorg Med Chem, 2017).
Values after ≈ are worked out from the molar mass of the structure shown. Active and inactive are the calls of the source. No cut-off for these calls is given here.

Columns and labels:
Assay type in all cases: functional
[1] = tested on: Mycobacterium tuberculosis; test: Antimycobacterial activity against isoniazid/rifampicin/ethambutol-resistant Mycobacterium tuberculosis G122 assessed as inhibition of mycobacterial growth incubated for 2 weeks by MABA method; conditions: for MIC: Mycobacterium tuberculosis, G122, 336 h
[2] = tested on: Mycobacterium tuberculosis; test: Antimycobacterial activity against isoniazid/rifampicin/streptomycin-resistant Mycobacterium tuberculosis G133 assessed as inhibition of mycobacterial growth incubated for 2 weeks by MABA method; conditions: for MIC: Mycobacterium tuberculosis, G133, 336 h
[3] = tested on: Mycobacterium tuberculosis; test: Antimycobacterial activity against isoniazid/rifampicin/ethambutol-resistant Mycobacterium tuberculosis G122 assessed as inhibition of mycobacterial growth up to 50 ug/ml incubated for 2 weeks by MABA method
[4] = tested on: Mycobacterium tuberculosis; test: Antimycobacterial activity against isoniazid/rifampicin/streptomycin-resistant Mycobacterium tuberculosis G133 assessed as inhibition of mycobacterial growth up to 50 ug/ml incubated for 2 weeks by MABA method
[5] = tested on: Mycobacterium tuberculosis; test: Antibacterial activity against multidrug-resistant Mycobacterium tuberculosis

Structure (SMILES)	-logMIC [1]	MIC [1] [µg/mL]	-logMIC [2]	MIC [2] [µg/mL]	growth inhibition (GI) [3]	growth inhibition (GI) [4]	MIC [5] [µg/mL]
COc1cc(C[C@@H](C)[C@@H](C)Cc2ccc(OC(=O)c3cccnc3)c(OC)c2)ccc1OC(=O)c1cccnc1	4.2	> 50	4.2	> 50	–	–	–
COc1cc(C[C@@H](C)[C@@H](C)Cc2ccc(OCCN3CCCCC3)c(OC)c2)ccc1OCCN1CCCCC1	–	6.25 (≈ 11.3 µM)	–	6.25 (≈ 11.3 µM)	–	–	–
COc1cc(C[C@@H](C)[C@@H](C)Cc2ccc(OCCN3CCCC3)c(OC)c2)ccc1O (racemic)	4.95	25 (≈ 58.5 µM)	4.95	25 (≈ 58.5 µM)	–	–	–
COc1cc(C[C@@H](C)[C@@H](C)Cc2ccc(OC(=O)c3ccccn3)c(OC)c2)ccc1OC(=O)c1ccccn1	3.91	–	3.91	–	inactive	inactive	–
COc1cc(C[C@@H](C)[C@@H](C)Cc2ccc(OCCN(C)C)c(OC)c2)ccc1OCCN(C)C	4.62	12.5 (≈ 26.4 µM)	4.62	12.5 (≈ 26.4 µM)	–	–	–
COc1cc(C[C@@H](C)[C@@H](C)Cc2ccc(O)c(OC)c2)ccc1O [MESODIHYDROGUAIARETIC ACID]	–	> 50	–	> 50	–	–	12.5 to 50 (≈ 37.8 to 151 µM)
COc1cc(C[C@@H](C)[C@@H](C)Cc2ccc(OC)c(OC)c2)ccc1O (racemic)	3.94	50 (≈ 145 µM)	3.94	50 (≈ 145 µM)	–	–	–
COc1cc(C[C@@H](C)[C@@H](C)Cc2ccc(OC(=O)c3cnccn3)c(OC)c2)ccc1O (racemic)	4.07	> 50	4.07	> 50	–	–	–
COc1cc(C[C@@H](C)[C@@H](C)Cc2ccc(OC(=O)c3ccccc3[N+](=O)[O-])c(OC)c2)ccc1OC(=O)c1ccccc1[N+](=O)[O-]	4.03	–	4.03	–	inactive	inactive	–
COc1cc(C[C@@H](C)[C@@H](C)Cc2ccc(OCCN3CCOCC3)c(OC)c2)ccc1OCCN1CCOCC1	–	6.25 (≈ 11.2 µM)	–	25 (≈ 44.9 µM)	–	–	–
CC[C@@H](CO)NCCN[C@@H](CC)CO [ETHAMBUTOL]	–	6.25 (≈ 30.6 µM)	–	3.12 (≈ 15.3 µM)	–	–	–
COc1cc(C[C@@H](C)[C@@H](C)Cc2ccc(OCCN3CCCCC3)c(OC)c2)ccc1O (racemic)	–	25 (≈ 56.6 µM)	–	25 (≈ 56.6 µM)	–	–	–
COc1cc(C[C@@H](C)[C@@H](C)Cc2ccc(OC(=O)c3ccccc3)c(OC)c2)ccc1O (racemic)	4.01	> 50	4	> 50	–	–	–
COc1cc(C[C@@H](C)[C@@H](C)Cc2ccc(OC(=O)c3ccccc3[N+](=O)[O-])c(OC)c2)ccc1O (racemic)	4.24	50 (≈ 104 µM)	3.93	> 50	–	–	–
COc1ccc(C[C@@H](C)[C@@H](C)Cc2ccc(OC)c(OC)c2)cc1OC [TERAMEPROCOL]	4.95	–	4.35	–	inactive	inactive	–
COc1cc(C[C@@H](C)[C@@H](C)Cc2ccc(OC(=O)c3cnccn3)c(OC)c2)ccc1OC(=O)c1cnccn1	4.23	> 50	4.23	> 50	–	–	–
COc1cc(C[C@@H](C)[C@@H](C)Cc2ccc(OCCN3CCOCC3)c(OC)c2)ccc1O (racemic)	–	–	–	–	inactive	inactive	–
CCCCCCCCCCCCCCCC(=O)Oc1ccc(C[C@H](C)[C@H](C)Cc2ccc(O)c(OC)c2)cc1OC (racemic)	3.93	–	3.93	–	inactive	inactive	–

Structure (SMILES)	-logMIC [1]	MIC [1] [µg/mL]	-logMIC [2]	MIC [2] [µg/mL]	growth inhibition (GI) [3]	growth inhibition (GI) [4]	MIC [5] [µg/mL]
COc1cc(C[C@@H](C)[C@@H](C)Cc2ccc(OC(=O)c3ccc(Br)cc3)c(OC)c2)ccc1OC(=O)c1ccc(Br)cc1	4.09	–	4.09	–	inactive	inactive	–
COc1cc(C[C@@H](C)[C@@H](C)Cc2ccc(OC(C)=O)c(OC)c2)ccc1OC(C)=O	4.23	> 50	4.23	> 50	–	–	–
CCCCCCCC/C=C\CCCCCCCC(=O)Oc1ccc(C[C@@H](C)[C@@H](C)Cc2ccc(OC(=O)CCCCCCC/C=C\CCCCCCCC)c(OC)c2)cc1OC	4.58	–	4.58	–	inactive	inactive	–
C[C@H]1COc2c(N3CCN(C)CC3)c(F)cc3c(=O)c(C(=O)O)cn1c23.C[C@H]1COc2c(N3CCN(C)CC3)c(F)cc3c(=O)c(C(=O)O)cn1c23.O [LEVOFLOXACIN]	–	6.25	–	1.56	–	–	–
COc1cc(C[C@@H](C)[C@@H](C)Cc2ccc(OCCN(C)C)c(OC)c2)ccc1O (racemic)	4.23	> 50	4.23	> 50	–	–	–
CCCC(=O)Oc1ccc(C[C@@H](C)[C@@H](C)Cc2ccc(OC(=O)CCC)c(OC)c2)cc1OC	4.03	–	4.03	–	inactive	inactive	–
COc1cc(C[C@@H](C)[C@@H](C)Cc2ccc(OC(=O)c3ccc(Br)cc3)c(OC)c2)ccc1O (racemic)	3.98	> 50	3.97	> 50	–	–	–
COc1cc(C[C@@H](C)[C@@H](C)Cc2ccc(OC(=O)c3cccnc3)c(OC)c2)ccc1O (racemic)	4.05	50 (≈ 115 µM)	4.05	50 (≈ 115 µM)	–	–	–
CCN(CC)CCOc1ccc(C[C@@H](C)[C@@H](C)Cc2ccc(OCCN(CC)CC)c(OC)c2)cc1OC	4.25	25 (≈ 47.3 µM)	4.25	25 (≈ 47.3 µM)	–	–	–
COc1cc(C[C@@H](C)[C@@H](C)Cc2ccc(OC(C)=O)c(OC)c2)ccc1O (racemic)	4.07	> 50	4.07	> 50	–	–	–
CCCCCCCCCCCCCCCC(=O)Oc1ccc(C[C@@H](C)[C@@H](C)Cc2ccc(OC(=O)CCCCCCCCCCCCCCC)c(OC)c2)cc1OC	4.02	–	4.02	–	inactive	inactive	–
COc1cc(C[C@@H](C)[C@@H](C)Cc2ccc(OC(=O)c3ccccn3)c(OC)c2)ccc1O (racemic)	3.86	25 (≈ 57.4 µM)	3.86	> 50	–	–	–
CCCCCCCC/C=C\CCCCCCCC(=O)Oc1ccc(C[C@H](C)[C@H](C)Cc2ccc(O)c(OC)c2)cc1OC (racemic)	3.9	–	3.9	–	inactive	inactive	–
COc1cc(C[C@@H](C)[C@@H](C)Cc2ccc(OCCN3CCCC3)c(OC)c2)ccc1OCCN1CCCC1	–	12.5 (≈ 23.8 µM)	–	12.5 (≈ 23.8 µM)	–	–	–
CCCC(=O)Oc1ccc(C[C@H](C)[C@H](C)Cc2ccc(O)c(OC)c2)cc1OC (racemic)	3.93	–	3.93	–	inactive	inactive	–
CCCCCCCCCCCCCCCCCC(=O)Oc1ccc(C[C@H](C)[C@H](C)Cc2ccc(O)c(OC)c2)cc1OC (racemic)	3.84	–	3.84	–	inactive	inactive	–
CCCCCCCCCCCCCCCCCC(=O)Oc1ccc(C[C@@H](C)[C@@H](C)Cc2ccc(OC(=O)CCCCCCCCCCCCCCCCC)c(OC)c2)cc1OC	3.85	–	3.85	–	inactive	inactive	–
COc1cc(C[C@@H](C)[C@@H](C)Cc2ccc(OC(=O)c3ccccc3)c(OC)c2)ccc1OC(=O)c1ccccc1	4.14	–	4.14	–	inactive	inactive	–
